Read-outs that look alike come from different tables or passages of the source.
Assays:
CYP3A4/5 = experiment: Time-dependent CYP inhibition in HLM, CYP3A4/5; assay type: in vitro ADME, human; conditions: 10 μM, 30 min pre-incubation with NADPH
Protocol: The procedure of time-dependent CYP inhibition was similar to that used for CYP reversible inhibition, as mentioned above, except that a pre-incubation step was added. […] Another appropriate volume of the NADPH-regenerating system and probe substrate were added to initiate the CYP isoform enzyme activity test step. For this step, the incubation period was 10 min, except for CYP2B6, CYP2C8, and CYP3A4/5 (probe substrate: midazolam), which was 3 min to make sure the reaction was under initial linear rates. After incubation for the designated time periods at 37°C, the ice-cold acetonitrile containing IS was added to quench the reaction. […] (Ainactivator/[…] represents the enzyme activity remaining due to the inhibition by the diluted inactivator in the enzyme activity test step, and (Ainactivator/[…] represents the remaining enzyme activity due to pre-incubation loss plus inhibition by the diluted inactivator in the enzyme activity test step.

Caco-2 cell monolayers = experiment: Caco-2 bidirectional transport permeability; assay type: in vitro ADME, human
Protocol: (§1) The passage number of cells used in this study was 39. Non-specific binding to the device surfaces and the aqueous solubility of test compounds were tested before the transport experiment. […] The integrity of the monolayer was estimated by measuring transepithelial electrical resistance (TEER). Only the monolayers with TEER over 150 Ω were used for the studies.

[1] = Caco-2 bidirectional transport permeability; assay type: in vitro ADME, human; conditions: human
Protocol: as §1

CYP3A4 = experiment: CYP induction in human hepatocytes, CYP3A4 enzyme activity; assay type: in vitro ADME
Protocol: […] […] […] Enzyme activity for each CYP isoform was reported as a fold change over vehicle control and the percent of positive control (detailed calculation in Supplementary 1.1). Hepatocytes were harvested with a lysis buffer from RNeasy 96 Kit (Qiagen Inc., Germantown, MD, USA) to isolate RNA, which was analyzed by real-time quantitative polymerase chain reaction (RT-PCR). […] Emax (the maximal observed induction) and EC50 (the concentration that supports half-maximal induction) were estimated by non-linear regression of fold increase in CYP mRNA expression versus concentration plots.
The fold of vehicle control and the percent of positive control were calculated with the formulas below:
Fold of vehicle control = CYPs activity of test compound (or positive control) treated sample / CYPs activity of vehicle control treated sample
% of positive control = [(fold change in treated sample)-1] / [(fold change in positive control)-1] × 100

[2] = Metabolic stability in monkey liver microsomes; assay type: in vitro ADME
Protocol: FMO was deactivated by heating liver microsomes at 45°C for 5 min. […] The natural logarithm of the percentage of the drug remaining was plotted against the incubation time, and the slope of the linear regression (-k) was converted to in vitro half-lives (t1/2) using the following equation: […] (1) metabolic clearance is the major mechanism of clearance; (2) liver is the major organ of clearance; and (3) oxidation is the major metabolic pathway. CLint,in vitro=k / Cmicrosomes , Scaled CLint,in vivo=CLint,in vitro×microsomes yield×liver weight, where Cmicrosomes means the experimental protein concentration (0.5 mg/mL) in the incubation system. […] Then, the scaled in vivo intrinsic clearance was used to predict the systemic clearance (equal to the hepatic clearance) using the well-stirred venous equilibration model ([Houston, 1994]).

[3] = Single-dose PK in cynomolgus monkeys (IV/PO); assay type: in vivo, cynomolgus monkey
[4] = Tissue distribution in SD rats after oral dose; design: species or system SD rat; conditions: in vivo
Protocol: After blood collection, the rats were sacrificed, and 18 tissues, namely, brain, breast, skin, fat, testis, ovary, bladder, pancreas, skeletal muscle, heart, lung, kidney, liver, stomach, small intestine, colon, spleen, and spinal cord, were removed from the rats at designated time points. These tissues were washed with saline and dried with filter paper. […] (Cheongju-si, Korea). […] The weight of the collected samples was recorded. Samples were stored in a −20°C freezer until analysis.

[5] = both sexes, cynomolgus monkey, in vivo, iv, 1 mg/kg
[6] = both sexes, cynomolgus monkey, in vivo, po, 5 mg/kg

With `C[C@H](Nc1ncnc(N)c1C#N)c1cc2ncc(Cl)n2nc1-c1ccccc1` [Amdizalisib] the “activity loss of CYP3A4/5” value (CYP3A4/5; substrate midazolam) was 16.9%, the “activity loss of CYP3A4/5” value (CYP3A4/5; substrate testosterone) was 11.7% and the Transporter substrate (Caco-2 cell monolayers) was “Not a substrate of P-gp and BCRP”. It also gave a Papp A→B at 30 min, 10 µM [1] of 457 nm/s, a Papp A→B at 60 min, 5 µM [1] of 385 nm/s and a Papp A→B at 60 min, 10 µM [1] of 399 nm/s. The Papp A→B at 60 min, 20 µM [1] was 409 nm/s, the Papp A→B at 60 min, 40 µM [1] was 363 nm/s and the Papp A→B at 60 min, 60 µM [1] was 422 nm/s. The Papp A→B at 90 min, 10 µM [1] was 389 nm/s, the Papp A→B at 120 min, 10 µM [1] was 369 nm/s and the Papp A→B at 150 min, 10 µM [1] was 371 nm/s. It also gave a Papp B→A at 30 min, 10 µM [1] of 695 nm/s, a Papp B→A at 60 min, 5 µM [1] of 504 nm/s and a Papp B→A at 60 min, 20 µM [1] of 523 nm/s. For the same compound, the Papp B→A at 60 min, 40 µM [1] was 454 nm/s, the Papp B→A at 60 min, 60 µM [1] was 479 nm/s and the Papp B→A at 60 min, 80 µM [1] was 454 nm/s. It also gave a Papp B→A at 90 min, 10 µM [1] of 571 nm/s, a Papp B→A at 120 min, 10 µM [1] of 560 nm/s and a Papp B→A at 150 min, 10 µM [1] of 556 nm/s. For the same compound, the Papp A→B at 60 min, 80 µM ([1]; substrate 80 µM, 60 min) was 477 nm/s, the “Enzyme activity Percent of PC (%)” value (CYP3A4; CYP3A4, donor seven, 1 µM) was 4.50% and the “Enzyme activity Percent of PC (%)” value (CYP3A4; CYP3A4, donor seven, 3 µM) was 4.60%. For the same compound, the “Enzyme activity Percent of PC (%)” value (CYP3A4; CYP3A4, donor seven, 10 µM) was 19.8%, the “Enzyme activity Percent of PC (%)” value (CYP3A4; CYP3A4, donor seven, 20 µM) was 5.20% and the “Enzyme activity Percent of PC (%)” value (CYP3A4; CYP3A4, donor seven, 30 µM) was 4.60%. For the same compound, the “Enzyme activity Percent of PC (%)” value (CYP3A4; CYP3A4, donor six, 1 µM) was 0.50%, the “Enzyme activity Percent of PC (%)” value (CYP3A4; CYP3A4, donor six, 3 µM) was 3.60% and the “Enzyme activity Percent of PC (%)” value (CYP3A4; CYP3A4, donor six, 10 µM) was 19.8%. For the same compound, the “Enzyme activity Percent of PC (%)” value (CYP3A4; CYP3A4, donor six, 20 µM) was 28.9%, the “Enzyme activity Percent of PC (%)” value (CYP3A4; CYP3A4, donor six, 30 µM) was 17.7% and the “Enzyme activity Percent of PC (%)” value (CYP3A4; CYP3A4, donor two, 1 µM) was 0.10%. The “Enzyme activity Percent of PC (%)” value (CYP3A4; CYP3A4, donor two, 3 µM) was 0.40%, the “Enzyme activity Percent of PC (%)” value (CYP3A4; CYP3A4, donor two, 10 µM) was 4.40% and the “Enzyme activity Percent of PC (%)” value (CYP3A4; CYP3A4, donor two, 20 µM) was 1.30%. The “Enzyme activity Percent of PC (%)” value (CYP3A4; CYP3A4, donor two, 30 µM) was 1.40%, the “induction of CYP3A4 enzyme activity” value (CYP3A4; up to 30.0 µM, all three donors) was “not considered an inducer” and the CLint scaled at 1 µM ([2]; female, monkey, microsomes, pH 7.4, Predicted CL int, iv vivo) was 1.15 L/h/kg. The half-life at 1 µM ([2]; female, monkey, microsomes, pH 7.4, in vitro t1/2) was 1.63 h, the “Predicted CL sys” value ([2]; male monkey liver microsomes, FMO deactivation) was 0.954 L/h/kg and the CLint scaled at 1 µM ([2]; male, monkey, microsomes, pH 7.4, Predicted CL int, iv vivo) was 1.8 L/h/kg. For the same compound, the half-life at 1 µM ([2]; male, monkey, microsomes, pH 7.4, in vitro t1/2) was 1.04 h, the CLint scaled at 1 µM ([2]; pH 7.4, female monkey liver microsomes, FMO deactivation, read-out: Predicted CL int, iv vivo) was 1.09 L/h/kg and the half-life at 1 µM ([2]; pH 7.4, female monkey liver microsomes, FMO deactivation, read-out: in vitro t1/2) was 1.72 h. For the same compound, the FPO ([3]; Cynomolgus monkey, fasted, PO 5 mg/kg, 5 mg/kg) was 30.8 ± 8.48%, the AUC(0-inf) [3, 5] was 1.52 µg·h/mL and the AUC(0-t) [3, 5] was 1.49 µg·h/mL. The MRT [3, 5] was 2.2 ± 0.551 h, the clearance [3, 5] was 0.678 ± 0.142 L/h/kg and the AUC(0-inf) [3, 6] was 2.39 µg·h/mL. It also gave an AUC(0-t) [3, 6] of 2.33 µg·h/mL, a Cmax [3, 6] of 0.48 ± 0.147 µg/mL and an MRT [3, 6] of 4.9 ± 1 h. It also gave a Tmax [3, 6] of 2 ± 0.632 h, a half-life [3, 6] of 3.1 ± 0.89 h and a Vd ([3]; both sexes, in vivo, Cynomolgus monkey, fasted, IV 1 mg/kg, read-out: Vss) of 1.45 ± 0.207 L/kg. The half-life ([3]; both sexes, in vivo, Cynomolgus monkey, fasted, IV 1 mg/kg, read-out: t1/2 (converted)) was 2.82 ± 0.469 h, the “CL as % of the hepatic blood flow” value ([3]; both, cynomolgus monkey, in vivo, iv) was 25.7% and the FPO ([3]; both, cynomolgus monkey, in vivo, po, 5 mg/kg) was 30.8%. It also gave a half-life ([4]; SD, female rat, PO 5 mg/kg, pancreas) of 3.38 h, a half-life ([4]; SD, male rat, PO 5 mg/kg, liver) of 1.76 h and a Kp ([4]; both sexes, SD, rat, po, 5 mg/kg, exposure in the intestines versus plasma) of 3 to 6. The AUC(0-t) ([4]; female, SD, rat, po, 5 mg/kg) was 11.4 µg·h/mL, the Cmax ([4]; female, SD, rat, po, 5 mg/kg) was 0.993 µg/mL and the Kp ([4]; female, SD, rat, po, 5 mg/kg, female rat, PO 5 mg/kg, colon, read-out: AUC0-t ratio of tissue/plasma) was 1.52. The Cmax ([4]; female, Sprague-Dawley, rat, po, 5 mg/kg) was 6950 ng/g, the AUC(0-t) ([4]; male, SD, rat, po, 5 mg/kg) was 1.38 µg·h/mL and the Cmax ([4]; male, SD, rat, po, 5 mg/kg) was 0.394 µg/mL. The Tmax ([4]; male, SD, rat, po, 5 mg/kg, Tmax) was 1 h, the Kp ([4]; male, SD, rat, po, 5 mg/kg, male rat, PO 5 mg/kg, bladder, read-out: AUC0-t ratio of tissue/plasma) was 1.08 and the Kp ([4]; male, SD, rat, po, 5 mg/kg, male rat, PO 5 mg/kg, pancreas, read-out: AUC0-t ratio of tissue/plasma) was 3.97. The Cmax ([4]; male, Sprague-Dawley, rat, po, 5 mg/kg) was 5080 ng/g.
